Reference: patent US11566007B2, “Ras inhibitors” (Revolution Medicines, Inc., priority 2019, dated 2023)
Where two headings read alike, the source gives them in different places.

Columns and labels:
[1] = tested on: NCI-H358 cells (K-Ras G12C); assay: Potency assay: pERK in NCI-H358 cells; type: cell-based, human; conditions: Homo sapiens, NCI-H358; H358 KRAS G12C; read-out: pERK EC50
Procedure, shortened: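 Compounds are dosed as ten 3-fold dilutions from a 10 mM DMSO stock, in duplicate, and left on cells for 4 h at 37 °C, 5% CO2. Phospho-ERK1/2 is then quantified by AlphaLISA SureFire Ultra or In-Cell Western, and IC50 is derived from a 4-parameter sigmoid against log concentration.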

NCI-H358 (K-Ras G12C) = assay: CellTiter-Glo cell viability assay, NCI-H358; type: cell-based, human; conditions: Homo sapiens, NCI-H358, 120 h, class symbols
Procedure, shortened: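 Luminescent viability readout on day 5 after direct compound addition to plated cells; plates sat ~30 min at room temperature before reading. Values expressed as percent of mean DMSO signal, curves fit with a four-parameter logistic model.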

K-Ras G12C = K-Ras G12C (Homo sapiens (Human), UniProt P01116+P62937, G12C); assay: Ras-Raf (BRAF RBD) disruption / FRET / MOA assay, KRAS G12C; type: biochemical; conditions: KRAS G12C, Ras-Raf disruption/FRET/MOA assay
Procedure, shortened: (§1)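 Ternary complex formation (Ras–compound–cyclophilin A) displacing BRAF RBD, monitored by TR-FRET. Three hours at 25° C with compound (top 30 μM final), then 1.5 h with the labelled antibodies. Lower ratio than DMSO indicates disruption; IC50 reported.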

KRAS G12V = KRAS G12V (Homo sapiens (Human), UniProt P01116+P62937, G12V); assay: Ras-Raf (BRAF RBD) disruption / FRET / MOA assay, KRAS G12V; type: biochemical; conditions: read-out: IC50* KRAS G12V FRET data
Procedure, shortened: as §1

KRAS G13D = KRAS G13D (Homo sapiens (Human), UniProt P01116+P62937, G13D); assay: Ras-Raf (BRAF RBD) disruption / FRET / MOA assay, KRAS G13D; type: biochemical
Procedure, shortened: as §1

[2] = NCI-H358, 5-day treatment, read-out: Additional H358 Cell Viability assay data (K-Ras G12C, IC50)
[3] = read-out: IC50* KRAS G12C FRET data
[4] = read-out: IC50* KRAS G13D FRET data

Sequence of KRAS G13D (P01116-2 other isoform, or with tags, fused parts or gaps G13D): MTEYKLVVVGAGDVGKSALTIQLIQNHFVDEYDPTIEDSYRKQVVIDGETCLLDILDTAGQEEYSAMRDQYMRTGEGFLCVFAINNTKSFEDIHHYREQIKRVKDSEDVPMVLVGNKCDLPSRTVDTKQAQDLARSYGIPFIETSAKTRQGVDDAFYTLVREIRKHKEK
Sequence of KRAS G13D (P62937 whole entry): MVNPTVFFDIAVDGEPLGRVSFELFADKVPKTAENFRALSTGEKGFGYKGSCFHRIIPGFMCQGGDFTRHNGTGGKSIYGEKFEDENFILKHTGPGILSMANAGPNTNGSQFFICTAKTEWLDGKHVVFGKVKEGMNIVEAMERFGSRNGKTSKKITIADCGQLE
Sequence of K-Ras G12C (P01116-2 other isoform, or with tags, fused parts or gaps G12C): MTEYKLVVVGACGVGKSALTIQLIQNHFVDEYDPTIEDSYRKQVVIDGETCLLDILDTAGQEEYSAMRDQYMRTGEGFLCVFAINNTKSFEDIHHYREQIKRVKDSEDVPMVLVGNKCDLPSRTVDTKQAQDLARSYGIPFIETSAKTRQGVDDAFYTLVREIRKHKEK
Sequence of K-Ras G12C (P62937 whole entry): as the sequence (P62937 whole entry) above
Sequence of KRAS G12V (P01116-2 other isoform, or with tags, fused parts or gaps G12V): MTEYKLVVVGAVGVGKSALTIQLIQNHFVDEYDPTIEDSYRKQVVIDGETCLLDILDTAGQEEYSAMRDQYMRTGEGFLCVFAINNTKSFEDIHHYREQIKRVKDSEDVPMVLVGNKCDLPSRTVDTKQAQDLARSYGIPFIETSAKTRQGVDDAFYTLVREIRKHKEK
Sequence of KRAS G12V (P62937 whole entry): as the sequence (P62937 whole entry) above

SMILES	EC50 [1]	IC50 (NCI-H358 (K-Ras G12C); [2])	IC50 (K-Ras G12C; [3])	IC50 (KRAS G12V)	IC50 (KRAS G13D; [4])	IC50 (NCI-H358 (K-Ras G12C); read-out: Additional H358 Cell Viability assay data (K-Ras G12C, IC50, uM), NCI-H358, 5-day treatment)	IC50 (K-Ras G12C; IC50* KRAS G12C FRET data)	IC50 (KRAS G13D; IC50* KRAS G13D FRET data)
C=CC(=O)N1CC[C@H](C(=O)N(C)[C@H](C(=O)N[C@H]2CC3=NC=C(O3)c3ccc4c(c3)c(c(-c3cccnc3[C@H](C)OC)n4CC)CC(C)(C)COC(=O)[C@@H]3CCCN(N3)C2=O)C(C)C)C1 (atropisomer, axis not shown) [Example A278]	< 5000 nM	0.1 to 1 µM	100 to 1000 nM	1000 to 10000 nM	1000 to 10000 nM			
CCn1c(-c2cccnc2[C@H](C)OC)c2c3cc(ccc31)-c1cccc(c1)C[C@H](NC(=O)[C@H](C(C)C)N(C)C(=O)[C@H]1CCN(C(=O)C#CC(C)(C)N(C)C)C1)C(=O)N1CCC[C@H](N1)C(=O)OCC(C)(C)C2 (atropisomer, axis not shown) [Example A290]	< 5000 nM	< 0.01 µM	< 10 nM	1000 to 10000 nM	1000 to 10000 nM			
C=CS(=O)(=O)N1CCC2(CCN([C@H](C(=O)N[C@H]3Cc4cc(O)cc(c4)-c4ccc5c(c4)c(c(-c4cccnc4[C@H](C)OC)n5CC)CC(C)(C)COC(=O)[C@@H]4CCCN(N4)C3=O)C(C)C)C2=O)CC1 (atropisomer, axis not shown) [Example A299]	< 5000 nM	< 0.01 µM	< 10 nM	100 to 1000 nM	100 to 1000 nM			
CO[C@@H](C)c1ncccc1-c1c2c3cc(ccc3n1CC(F)(F)F)-c1csc(n1)C[C@H](NC(=O)[C@@H](COC1CN(C(=O)C#CC(C)(C)N(C)C)C1)C(C)C)C(=O)N1CCC[C@H](N1)C(=O)OCC(C)(C)C2 (atropisomer, axis not shown) [Example A343]	< 5000 nM	< 0.01 µM	< 10 nM	1000 to 10000 nM	> 10000 nM			
C=CC(=O)N1CC[C@H](C(=O)N(C)[C@H](C(=O)N[C@H]2Cc3cc(cc(C(F)F)c3)-c3ccc4c(c3)c(c(-c3cc(N5CCN(C)CC5)cnc3[C@H](C)OC)n4CC(F)(F)F)CC(C)(C)COC(=O)[C@@H]3CCCN(N3)C2=O)C(C)C)C1 (atropisomer, axis not shown) [Example A357]	< 5000 nM	< 0.01 µM	100 to 1000 nM	100 to 1000 nM	100 to 1000 nM			
CO[C@@H](C)c1ncccc1-c1c2c3cc(ccc3n1CC(F)(F)F)-c1cccc(c1)C[C@H](NC(=O)[C@@H](COC1CN(C(=O)C#CC(C)(C)N(C)C)C1)C(C)C)C(=O)N1CCC[C@H](N1)C(=O)OCC(C)(C)C2 (atropisomer, axis not shown) [Example A376]	< 5000 nM	< 0.01 µM	< 10 nM	1000 to 10000 nM	> 10000 nM			
C=CC(=O)N1C[C@H](C)N(C(=O)N(C)[C@H](C(=O)N[C@H]2Cc3nc(cs3)-c3ccc4c(c3)c(c(-c3cccnc3[C@H](C)OC)n4CC)CC(C)(C)COC(=O)[C@@H]3CCCN(N3)C2=O)C(C)C)C[C@@H]1C (atropisomer, axis not shown) [Example A385]	< 5000 nM	< 0.01 µM	10 to 100 nM	100 to 1000 nM	100 to 1000 nM			
C=CC(=O)N1CCC12CN(C(=O)N(C)[C@H](C(=O)N[C@H]1Cc3nc(cs3)-c3ccc4c(c3)c(c(-c3cccnc3[C@H](C)OC)n4CC)CC(C)(C)COC(=O)[C@@H]3CCCN(N3)C1=O)C(C)C)C2 (atropisomer, axis not shown) [Example A393]	< 5000 nM	0.01 to 0.1 µM	100 to 1000 nM	1000 to 10000 nM	1000 to 10000 nM			
CCn1c(-c2cccnc2[C@H](C)OC)c2c3cc(ccc31)-c1cc(F)cc(c1)C[C@H](NC(=O)[C@@H](COC1CN(C(=O)C#CC(C)(C)N(C)C)C1)C(C)C)C(=O)N1CCC[C@H](N1)C(=O)OCC(C)(C)C2 (atropisomer, axis not shown) [Example A403]	< 5000 nM	< 0.01 µM	< 10 nM	1000 to 10000 nM	> 10000 nM			
C=CC(=O)N1CC2(CCN2C(=O)N(C)[C@H](C(=O)N[C@H]2Cc3nc(cs3)-c3ccc4c(c3)c(c(-c3cccnc3[C@H](C)OC)n4CC)CC(C)(C)COC(=O)[C@@H]3CCCN(N3)C2=O)C(C)C)C1 (atropisomer, axis not shown) [Example A407]	< 5000 nM	< 0.01 µM	< 10 nM	100 to 1000 nM	100 to 1000 nM			
C=CC(=O)N1CC[C@H](C(=O)N(C)[C@H](C(=O)N[C@H]2CC3=NN=C(O3)c3ccc4c(c3)c(c(-c3cccnc3[C@H](C)OC)n4CC)CC(C)(C)COC(=O)[C@@H]3CCCN(N3)C2=O)C(C)C)C1 (atropisomer, axis not shown) [Example A447]	< 5000 nM	0.1 to 1 µM	100 to 1000 nM	1000 to 10000 nM	> 10000 nM			
C=CC(=O)Nc1ncc(C(=O)N(C)[C@H](C(=O)N[C@H]2Cc3cccc(c3)-c3ccc4c(c3)c(c(-c3cccnc3[C@H](C)OC)n4CC)CC(C)(C)COC(=O)[C@@H]3CCCN(N3)C2=O)C(C)C)n1C (atropisomer, axis not shown) [Example A474]	< 5000 nM	< 0.01 µM	< 10 nM	1000 to 10000 nM	1000 to 10000 nM			
C=CC(=O)N1CC[C@H](C(=O)N2CC[C@H](C)[C@H]2C(=O)N[C@H]2Cc3cccc(c3)-c3ccc4c(c3)c(c(-c3cccnc3[C@H](C)OC)n4CC)CC(C)(C)COC(=O)[C@@H]3CCCN(N3)C2=O)C1 (atropisomer, axis not shown) [Example A494]	< 5000 nM	0.1 to 1 µM	100 to 1000 nM	> 10000 nM	> 10000 nM			
C=CC(=O)N1CC[C@H](C(=O)N2CCCCC[C@H]2C(=O)N[C@H]2Cc3cccc(c3)-c3ccc4c(c3)c(c(-c3cccnc3[C@H](C)OC)n4CC)CC(C)(C)COC(=O)[C@@H]3CCCN(N3)C2=O)C1 (atropisomer, axis not shown) [Example A496]	< 5000 nM	0.1 to 1 µM	1000 to 10000 nM	> 10000 nM	> 10000 nM			
CCn1c(-c2cccnc2[C@H](C)OC)c2c3cc(ccc31)-c1cccc(c1)C[C@H](NC(=O)[C@H](C(C)C)N1CC[C@]3(CCN(C(=O)C#CC(C)(C)N(C)C)C3)C1=O)C(=O)N1CCC[C@H](N1)C(=O)OCC(C)(C)C2 (atropisomer, axis not shown) [Example A534, (2S)-2-((S)-7-(4-(dimethylamino)-4-methylpent-2-ynoyl)-1-oxo-2,7-diazaspiro[4.4]nonan-2-yl)-N-((6^3S,4S)-1^1-ethyl-1^2-(2-((S)-1-methoxyethyl)pyridin-3-yl)-10,10-dimethyl-5,7-dioxo-6^1,6^2,6^3,6^4,6^5,6^6-hexahydro-1^1H-8-oxa-1(5,3)-indola-6(1,3)-pyridazina-2(1,3)-benzenacycloundecaphane-4-yl)-3-methylbutanamide]	< 5000 nM	< 0.01 µM	< 10 nM	1000 to 10000 nM	1000 to 10000 nM			
C=CC(=O)N1CC[C@H]2[C@@H]1CN2C(=O)N(C)[C@H](C(=O)N[C@H]1Cc2nc(cs2)-c2ccc3c(c2)c(c(-c2cccnc2[C@H](C)OC)n3CC)CC(C)(C)COC(=O)[C@@H]2CCCN(N2)C1=O)C(C)C (atropisomer, axis not shown) [Example A547]	< 5000 nM	0.1 to 1 µM	100 to 1000 nM	1000 to 10000 nM	1000 to 10000 nM			
CCn1c(-c2cccnc2[C@H](C)OC)c2c3cc(ccc31)-c1cccc(c1)C[C@H](NC(=O)[C@H](C(C)C)N1CC[C@@]3(CCN(C(=O)C#C[C@@H]4COCCN4C)C3)C1=O)C(=O)N1CCC[C@H](N1)C(=O)OCC(C)(C)C2 (atropisomer, axis not shown) [Example A549]	< 5000 nM			1000 to 10000 nM		< 0.01 µM	< 10 nM	1000 to 10000 nM
CCn1c(-c2cccnc2[C@H](C)OC)c2c3cc(ccc31)-c1cccc(c1)C[C@H](NC(=O)[C@H](C(C)C)N1CC[C@]3(CCN(C(=O)C#C[C@@]4(N(C)C)CCOC4)C3)C1=O)C(=O)N1CCC[C@H](N1)C(=O)OCC(C)(C)C2 (atropisomer, axis not shown) [Example A560]	< 5000 nM	< 0.01 µM	10 to 100 nM	1000 to 10000 nM	1000 to 10000 nM			
C=CC(=O)N1C[C@@H]2CN(C(=O)N(C)[C@H](C(=O)N[C@H]3Cc4nc(cs4)-c4ccc5c(c4)c(c(-c4cccnc4[C@H](C)OC)n5CC)CC(C)(C)COC(=O)[C@@H]4CCCN(N4)C3=O)C(C)C)[C@@H]2C1 (atropisomer, axis not shown) [Example A561]	< 5000 nM	0.1 to 1 µM	100 to 1000 nM	1000 to 10000 nM	1000 to 10000 nM			
C=CC(=O)N1CCO[C@H]2CN(C(=O)N(C)[C@H](C(=O)N[C@H]3CC4=NN=C(O4)c4ccc5c(c4)c(c(-c4cccnc4[C@H](C)OC)n5CC(F)(F)F)CC(C)(C)COC(=O)[C@@H]4CCCN(N4)C3=O)C(C)C)C[C@H]21 (atropisomer, axis not shown) [Example A576]	< 5000 nM	0.1 to 1 µM	100 to 1000 nM	> 10000 nM	> 10000 nM			
